According to patent publication US10570174B2, “Peptides for the treatment of malignant proliferative diseases” (Yissum Research Development Company of the Hebrew …, priority 2015, dated 2020):

Columns and labels:
D122 cells [1] = assay: Lung metastasis in mice i.v. injected with D122 cells, treatment started 7 days after cell injection; format: in vivo, C57BL/6 mice; details: i.p. 0.01 μg/kg from 7 days after cell injection
Experimental: To assess whether time of treatment affects the metastasis process, YHI1 was administered 7 days after tumor cell injection. Female C57BL/6 mice were i.v. injected with D122 cells (5×10^5 cells per mouse suspended in 100 μl PBS). YHI1 was i.p. administered at a dose of 0.01 μg/kg body weight (volume of 0.1 ml) 7 days after cell injection and thereafter up to 35 days, 3 times a week. Control mice received the vehicle (saline). Lung weight, number of tumors, lung histology (H&E) and survival were determined on day 35 after cell inoculation for each animal Lung weight was compared to a healthy lung removed from a naïve animal.

B16-F10 cells = assay: Tumorigenicity of B16-F10 melanoma cells injected subcutaneously; format: in vivo, C57BL/6 mice; details: 17 days after cell injection
Experimental: To examine the effect of YHI1 on melanoma tumor cells, female C57BL/6 mice (6-7 weeks) were subcutaneously injected in the lateral thoracic-abdominal area with B16-F10 cells (2×10^5 cells in 0.1 ml culture medium). YHI1 was i.p. administered at doses of 30 and 100 ng/kg body weight (0.1 ml) on day 3 after tumor cell inoculation and thereafter until day 20 of tumor cell inoculation, 6 times a week. Control mice received saline (vehicle) injections. Each dose group contained 10 mice. Tumor size was measured along the experiment and was expressed as multiplication of length and width of the tumor.

[2] = test system: 4T1 mammary carcinoma cells; assay: Lung metastasis in mice inoculated with 4T1 mammary carcinoma cells (Example 4); format: in vivo, BALB/c mice; set-up: Score (histological score of lung, per specimen): scale not given here
Experimental: Female BALB/c mice (9-10 weeks) were i.v. injected with mammary 4T1 tumor cells (1×10^4 cells in 0.2 ml culture medium). YHI1 was i.p. administered to the mice at doses of 3, 10 and 30 ng/kg body weight (0.1 ml) on day 5 after tumor cell inoculation and thereafter 6 days a week, until day 21, on which day the mice were sacrificed. Control mice received saline (vehicle) injections. Additional 3 mice remained naïve (“pure control”, no cell injection, no treatment). Each dose group contained 10 mice. At the end of the experiments the mice were sacrificed, the lungs of the mice were removed, weighed and quantified for the number of foci.

[3] = test system: D122 cells (3LL Lewis lung carcinoma); assay: Tumor growth in footpads of mice injected with D122 lung tumor cells, oral YHI1; format: in vivo, C57BL/6 mice
Experimental: (§1) YHI1 was synthesized by solid phase synthesis to over 95% purity. To assess the effect of YHI1 on local tumor growth, lung cancer cells were injected into footpads of mice to induce the formation of a topical tumor, and the tumor size was measured in mice treated with several dosages of YHI1 or with vehicle only. Two separate experiments were carried out using this model, one in which YHI1 and vehicle were administered orally and another in which YHI1 and vehicle were administered via intraperitoneal (i.p.) injection.
Female C57BL/6 mice were injected in the footpads with D122 cells (2×10^5 cells per mouse suspended in 50 μl PBS), a highly metastatic 3LL Lewis lung carcinoma. YHI1 (dissolved in saline) was orally administered at the indicated doses 8, 6, 4 and 1 day prior to cell injection and thereafter during 35 days, 3 times a week. Control mice received the vehicle (saline). Tumor size (diameter) was measured by a caliper. Baseline value (before cell injection) was subtracted from each measurement. Groups: control (n=10), and YHI1—0.1 mg/kg (n=9), 1 mg/kg (n=10), 5 mg/kg (n=8).
The results are expressed as mean±SE. p<0.05 for 5 mg/kg group versus control, for the period of 23-35 days (Mann-Whitney test).

D122 cells [4] = assay: Lung metastasis in mice i.v. injected with D122 cells, treatment started before cell injection; format: in vivo, C57BL/6 mice; details: for reduction in Δ lung weight compared to control: day 35
Experimental: To examine the effect of YHI1 on cancer cell metastasis, lung metastasis was induced in mice, and the lung weight and the number of large metastases in mice treated with YHI1 or with vehicle only were measured.
Female C57BL/6 mice were i.v. injected with D122 cells (5×10^5 cells per mouse suspended in 100 μl PBS). YHI1 was i.p. administered at doses of 0.1 μg/kg body weight and 0.01 μg/kg body weight 8, 6, 4 and 1 day prior to cell injection and thereafter up to 35 days, 3 times a week. Control mice received the vehicle (saline).
Lung weight was determined on day 35 for each animal. Mean weight of lungs of healthy-non injected mice was subtracted from each value of the experimental and control groups, and the results are expressed as A lung weight. n=11, 10 and 9 mice for control, YHI1 0.1 and 0.01 μg/kg groups, respectively. Results are expressed as mean±SE using the Kruskal-Wallis test and Dunnett's multiple comparison post test for statistical evaluation of the differences in lung weight between the experimental groups and control mice. *p<0.05 for both 0.1 μg/kg and 0.01 μg/kg groups.
The number of large visible metastases in the lungs was next quantified. […] The results are expressed as mean±SE. *p<0.05 Mann Whitney test.
The lungs were then fixed, sectioned and stained with H&E for histopathological evaluation.

[5] = test system: 4T1 mammary carcinoma cells; assay: Lung metastasis in mice inoculated with 4T1 cells, YHI1 and derivatives vs control compounds (Example 6); format: in vivo, BALB/c mice; details: i.p., doses molar equivalent to 30 ng/kg YHI1, day 5 to day 16, 6 days a week
Experimental: YHI1 and its derivatives YHI2 and YHI4 were tested in comparison to a scrambled sequence (designated ‘YHI3’), IIIM1 and Arg-Pbf. All peptides were synthesized to over 98% purity.
Female BALB/c mice (9-10 weeks old) were iv injected with 4T1 cells (1×10^4 cells in 0.2 ml culture medium; medium was replaced with fresh medium one day prior to the injection). The tested compounds were ip administered on day 5 after tumor cell inoculation and continued daily thereafter 6 days a week until day 16, on which day the mice were sacrificed (in YHI3 group one animal died 14 days after cell injection before end of study). Each mouse received 10 injections during 11 consecutive days. A control group of mice received the same volume of saline (vehicle) injections. Each group contained 8 mice (n=8). Additional 4 mice remained naïve (without tumor cell injection and without any treatment), designated here as ‘pure control’. At the end of the experiments the mice were sacrificed and their lungs were removed, weighed and quantified for number of foci.

[6] = test system: D122 cells (3LL Lewis lung carcinoma); assay: Tumor growth in footpads of mice injected with D122 lung tumor cells, i.p. YHI1; format: in vivo, C57BL/6 mice
Experimental: as §1
Female C57BL/6 mice were injected in the footpads with D122 cells (2×10^5 cells per mouse suspended in 50 μl PBS). YHI1 was i.p. administered at the indicated doses 8, 6, 4 or 1 day prior to cell injection and thereafter up to 34 days, 3 times a week. Control mice received the vehicle (saline). Tumor size (diameter) was measured by a caliper. Baseline value (before cell injection) was subtracted from each measurement. Groups: control (n=10), and YHI1—0.1 μg/kg (n=10), 1 μg/kg (n=10), 10 μg/kg (n=11), 100 μg/kg (n=9).
The results are expressed as mean±SE using the Kruskal-Wallis test and Dunnett's multiple comparison post test for statistical evaluation of the differences between the treated groups and control group at each time point.

Substance: H-Lys-Gly-His-Tyr-Ala-Glu-Arg(Pbf)-Val-Gly-OH (KGHYAEXVG; HELM PEPTIDE1{K.G.H.Y.A.E.[Cc1c(C)c(S(=O)(=O)NC(=N)NCCC[C@H](N[*:1])C(=O)[*:2])c(C)c2c1OC(C)(C)C2].V.G}$$$$V2.0; SMILES Cc1c(C)c(S(=O)(=O)NC(=N)NCCC[C@H](NC(=O)[C@H](CCC(=O)O)NC(=O)[C@H](C)NC(=O)[C@H](Cc2ccc(O)cc2)NC(=O)[C@H](Cc2c[nH]cn2)NC(=O)CNC(=O)[C@@H](N)CCCCN)C(=O)N[C@H](C(=O)NCC(=O)O)C(C)C)c(C)c2c1OC(C)(C)C2) [YHI1]
- histological lung sections (H&E) (D122 cells [1]): only a single focus of viable tumor
- histological score of lung metastasis (D122 cells [1]): significantly reduced
- lung weight lower than control (D122 cells [1]; day 35): 63%
- number of large and medium sized metastases in the lungs (D122 cells [1]; day 35): significantly reduced
- survival (D122 cells [1]; control 80% survival): full animal survival
- effect on local tumor growth (B16-F10 cells; i.p. 30 ng/kg compared with 100 ng/kg): slightly weaker effect
- reduction of local tumor growth (tumor size, length x width) (B16-F10 cells; i.p. 100 ng/kg): 55%
- Description (blindly evaluated) of lung histology, per specimen ([2]; 30 ng/kg, individual specimens i-X): No metastases observed.
- Score (histological score of lung, per specimen) ([2]; 30 ng/kg, individual specimens i-X, blindly evaluated): 0
- effect on foci number ([2]; i.p. 3 ng/kg): no effect
- effect on lung weight ([2]; i.p. 3 ng/kg, day 5 to day 21, 6 days a week): no effect
- reduction of number of lung foci vs control ([2]; i.p. 10 ng/kg): 94%
- reduction of lung weight vs control ([2]; i.p. 10 ng/kg, day 5 to day 21, 6 days a week): 65%
- reduction of number of lung foci vs control ([2]; i.p. 30 ng/kg): 100%
- histological score of lung metastasis (group) ([2]; i.p. 30 ng/kg vs control): significantly reduced
- reduction of lung weight vs control ([2]; i.p. 30 ng/kg, day 5 to day 21, 6 days a week): 78%
- histological lung section ([2]; i.p. 30 ng/kg, representative section): normal lung tissue with no evidence of metastases
- reduction of tumor size, comparison between doses ([3]; oral, 5 mg/kg vs 1 mg/kg and 0.1 mg/kg): more effective in reducing tumor size than the lower doses
- rate of tumor growth (tumor size, diameter) ([3]; oral, 0.1, 1, 5 mg/kg, 8, 6, 4, 1 day prior to cell injection and 3 times a week during 35 days): reduced the rate of tumor growth
- number of large visible metastases in the lungs (D122 cells [4]; i.p. 0.01 μg/kg): totally eliminated visible metastases
- reduction in Δ lung weight compared to control (D122 cells [4]; i.p. 0.01 μg/kg): 87%
- lung histopathology (H&E) (D122 cells [4]; i.p. 0.01 μg/kg, representative section): tumor free
- reduction of number of large metastases compared to control (D122 cells [4]; i.p. 0.1 μg/kg): 58%
- reduction in Δ lung weight compared to control (D122 cells [4]; i.p. 0.1 μg/kg): 78%
- lung weight compared to saline control [5]: significant reduction
- number of tumors per lung compared to saline control [5]: significant reduction
- reduction of tumor size, comparison between doses ([6]; 0.1 μg/kg vs higher doses up to 100 μg/kg): more effective in reducing tumor size than higher doses
- rate of tumor growth (tumor size, diameter) ([6]; 0.1-100 μg/kg, 8, 6, 4, 1 day prior to cell injection and 3 times a week up to 34 days): reduced the rate of tumor growth

Substance: H-Lys-Gly-His-Tyr-Ala-Glu-Arg(NO2)-Val-Gly-OH (KGHYAEXVG; HELM PEPTIDE1{K.G.H.Y.A.E.[N=C(NCCC[C@H](N[*:1])C(=O)[*:2])N[N+](=O)[O-]].V.G}$$$$V2.0; SMILES CC(C)[C@H](NC(=O)[C@H](CCCNC(=N)N[N+](=O)[O-])NC(=O)[C@H](CCC(=O)O)NC(=O)[C@H](C)NC(=O)[C@H](Cc1ccc(O)cc1)NC(=O)[C@H](Cc1c[nH]cn1)NC(=O)CNC(=O)[C@@H](N)CCCCN)C(=O)NCC(=O)O) [YHI4, KGHYAER(NO2)VG, derivative of YHI1]
- lung weight compared to saline control [5]: significant reduction
- number of tumors per lung compared to saline control [5]: reduction was not statistically significant

Substance: H-Lys-Gly-His-Tyr-Arg(Pbf)-Ala-Glu-Val-Gly-OH (KGHYXAEVG; HELM PEPTIDE1{K.G.H.Y.[Cc1c(C)c(S(=O)(=O)NC(=N)NCCC[C@H](N[*:1])C(=O)[*:2])c(C)c2c1OC(C)(C)C2].A.E.V.G}$$$$V2.0; SMILES Cc1c(C)c(S(=O)(=O)NC(=N)NCCC[C@H](NC(=O)[C@H](Cc2ccc(O)cc2)NC(=O)[C@H](Cc2c[nH]cn2)NC(=O)CNC(=O)[C@@H](N)CCCCN)C(=O)N[C@@H](C)C(=O)N[C@@H](CCC(=O)O)C(=O)N[C@H](C(=O)NCC(=O)O)C(C)C)c(C)c2c1OC(C)(C)C2) [YHI2, KGHYR(Pbf)AEVG, derivative of YHI1]
- lung weight compared to saline control [5]: significant reduction
- number of tumors per lung compared to saline control [5]: significant reduction
